Source: patent US20100255580A1, “Differentiation of Human Embryonic Stem Cells” (LIFESCCAN, INC., priority 2007, published 2010)

System: H9 embryonic stem cells
Type: cell-based, human
Conditions: low serum, on MEFS
Procedure: Controls for each group included cells plated on […]-coated dishes and cultured in MEF-conditioned medium or cells plated on MEFs and cultured in ES medium. All groups contained three biological replicates and each biological replicate was repeated on two separate gene chips.
Sample preparation, hybridization, and image analysis were performed according to the Affymetrix Human Genome U133 Plus 2.0 Array. Following normalization and a log transformation, data analysis was performed using OmniViz® software (MA) and […] (VizXLabs, WA). Significant differences in gene expression between the samples were evaluated using analysis of variance and an F-test with adjusted P-value (Benjamini and
Hochberg correction) of ≦b 0.05. Only genes with a present call in at least one group were included in the analysis.

Substance: Activin A: a member of the TGFβ superfamily; R&D Systems; Group 2 = Activin A (100 ng/ml)
- log intensity, bHLH factor Hes4 (LOC57801): 2.4
- log intensity, beta3GalNAcT-1 mRNA for globoside synthase, clone: type 2: −0.0984
- log intensity, bone morphogenetic protein 2 (BMP2): 5.029
- log intensity, bone morphogenetic protein 5 (BMP5): 0.6148
- log intensity, bromodomain and PHD finger containing, 3: 0.3694
- log intensity, c-mer proto-oncogene tyrosine kinase (MERTK): 3.617
- log intensity, cDNA FLJ11390 fis, clone HEMBA1000561: 0.3644
- log intensity, cDNA FLJ13221 fis, clone NT2RP4002075: 1.082
- log intensity, cDNA FLJ13392 fis, clone PLACE1001280: 1.169
- log intensity, cDNA FLJ13810 fis, clone THYRO1000279: −0.8532
- log intensity, cDNA FLJ30081 fis, clone BGGI12000693: 1.125
- log intensity, cDNA FLJ34035 fis, clone FCBBF2004788: −2.008
- log intensity, cDNA FLJ36116 fis, clone TESTI2022338: 6.155
- log intensity, cDNA: FLJ22731 fis, clone HSI15841: 2.241
- log intensity, cDNA: FLJ22808 fis, clone KAIA2925: 2.414
- log intensity, cDNA: FLJ23067 fis, clone LNG04993: 0.8825
- log intensity, calmegin (CLGN): 3.111
- log intensity, cardiac ankyrin repeat protein (CARP): 1.987
- log intensity, cartilage linking protein 1: 0.9872
- log intensity, caspase-like apoptosis regulatory protein 2 (clarp): 5.2167
- log intensity, chemokine receptor CXCR4 mRNA: 5.669
- log intensity, cleft lip and palate associated transmembrane protein 1, clone MGC: 10593: 0.5567
- log intensity, clone FLC1492 PRO3121 mRNA: −3.392
- log intensity, clone HB-2 mRNA sequence: 1.252
- log intensity, clone IMAGE: 3509274, mRNA, partial cds: 0.7945
- log intensity, clone IMAGE: 4047715, mRNA: 1.527
- log intensity, clone MGC: 14801: 1.511
- log intensity, clone MGC: 24252 IMAGE: 3932604: 1.593
- log intensity, clone TUA8 Cri-du-chat region mRNA: 1.497
- log intensity, collagen, type V, alpha 1: 1.666
- log intensity, complement component 5 (C5): 1.596
- log intensity, core histone macroH2A2.2 (MACROH2A2): 3.662
- log intensity, cystatin C (amyloid angiopathy and cerebral hemorrhage) (CST3): 3.52
- log intensity, deiodinase, iodothyronine, type III (DIO3): 4.229
- log intensity, dickkopf (Xenopus laevis) homolog 1 (DKK1): 1.09
- log intensity, dual specificity phosphatase 4, clone MGC: 3713: 5.601
- log intensity, dynein, axonemal, light polypeptide 4 (DNAL4): 1.8494
- log intensity, dystrophin (muscular dystrophy, Duchenne and Becker types) (DMD), transcript variant Dp427p2: 3.044
- log intensity, ectodermal dysplasia 1, anhidrotic (ED1): 3.078
- log intensity, elongation of very long chain fatty acids (FEN1Elo2, SUR4Elo3, yeast)-like 2 (ELOVL2): 1.508
- log intensity, endothelin receptor type A (EDNRA), mRNA: 3.552
- log intensity, endothelin receptor type A (r1027): 1.954
- log intensity, enolase 2, (gamma, neuronal) (ENO2): 3.926
- log intensity, eomesodermin (Xenopus laevis) homolog (EOMES): 4.898
- log intensity, erythrocyte membrane protein band 4.9 (dematin) (EPB49): 0.9238
- log intensity, fasciculation and elongation protein zeta 1 (zygin I) (FEZ1), transcript variant 1: 2.203
- log intensity, forkhead box F2 (FOXF2): −1.115
- log intensity, gelsolin (amyloidosis, Finnish type) (GSN): 4.45
- log intensity, glucose-6-phosphate transporter (G6PT) gene, G6PT-Dt allele: 0.4077
- log intensity, glutathione S-transferase A2 (GSTA2): −0.4221
- log intensity, glycoprotein M6A: 2.3278
- log intensity, guanylate cyclase activator 1B (retina) (GUCA1B): 0.685
- log intensity, heparan sulfate proteoglycan 2 (perlecan): −0.9721
- log intensity, hexabrachion (tenascin C, cytotactin) (HXB): 2.854
- log intensity, high mobility group protein-R: 0.09529
- log intensity, hypothetical protein BC017868 (LOC159091): 0.4016
- log intensity, hypothetical protein DKFZp434F0318: 0.3947
- log intensity, hypothetical protein DKFZp434F2322: 1.421
- log intensity, hypothetical protein DKFZp564B052: 2.003
- log intensity, hypothetical protein FLJ10312: 4.892
- log intensity, hypothetical protein FLJ11155: −0.7126
- log intensity, hypothetical protein FLJ11560: 1.807
- log intensity, hypothetical protein FLJ12538 similar to ras-related protein RAB17: 4.734
- log intensity, hypothetical protein FLJ12666 (r758): 1.405
- log intensity, hypothetical protein FLJ12666 (r998): 4.028
- log intensity, hypothetical protein FLJ12838: 3.152
- log intensity, hypothetical protein FLJ21195 similar to protein related to DAC and cerberus: 0.764
- log intensity, hypothetical protein FLJ22471: 3.1349
- log intensity, hypothetical protein FLJ23091: 3.042
- log intensity, hypothetical protein FLJ23514: 5.247
- log intensity, hypothetical protein FLJ32835: 3.947
- log intensity, hypothetical protein MGC2865, clone MGC: 20246: −1.506
- log intensity, insulin-like growth factor binding protein 6 (IGFBP6): 3.304
- log intensity, keratin 19 (KRT19): 5.919
- log intensity, kidney-specific membrane protein NX-17: 3.45
- log intensity, lipase mRNA: 0.5585
- log intensity, lymphocyte antigen 6 complex, locus E (LY6E): 4.926
- log intensity, mRNA for KIAA0876 protein: 0.07325
- log intensity, mRNA for KIAA1161 protein: 1.981
- log intensity, mRNA for MSX-2: 1.945
- log intensity, mRNA for protein-tyrosine kinase: 1.042
- log intensity, mRNA; cDNA DKFZp434E082: 2.943
- log intensity, mRNA; cDNA DKFZp434K0621: 2.214
- log intensity, mRNA; cDNA DKFZp434P228: 3.113
- log intensity, mRNA; cDNA DKFZp547H236: 2.081
- log intensity, mRNA; cDNA DKFZp564K1672: 6.335
- log intensity, mRNA; cDNA DKFZp586G2120: 0.523
- log intensity, mRNA; cDNA DKFZp586L0120: 1.28
- log intensity, mRNA; cDNA DKFZp762H185: 3.792
- log intensity, mandaselin long form: 1.2296
- log intensity, matrix metalloproteinase 15 (membrane-inserted) (MMP15): 1.8336
- log intensity, microseminoprotein, beta-(MSMB): 0.1699
- log intensity, mitogen-activated protein kinase 10 (MAPK10): 2.286
- log intensity, nuclear factor of kappa light polypeptide gene enhancer in B-cells inhibitor, alpha: 5.478
- log intensity, nuclear receptor subfamily 0, group B, member 1 (NR0B1) (r534): 1.279
- log intensity, nuclear receptor subfamily 0, group B, member 1 (NR0B1) (r1079): 3.298
- log intensity, nudix (nucleoside diphosphate linked moiety X)-type motif 4: 5.689
- log intensity, olfactory receptor, family 52, subfamily A, member 1 (OR52A1): 0.6365
- log intensity, oxoglutarate dehydrogenase (lipoamide) (OGDH): −0.3853
- log intensity, partial LHX9 gene for LIM-homeobox 9, 3UTR: −0.1342
- log intensity, partial mRNA for putative nuclear factor: 2.679
- log intensity, phosphatidylinositol-4-phosphate 5-kinase, type I, beta (PIP5K1B): 2.467
- log intensity, phosphofructokinase, liver (PFKL): 2.704
- log intensity, pilin-like transcription factor (PILB): 4.382
- log intensity, pleiomorphic adenoma gene-like 1: 0.2215
- log intensity, plexin A2: 2.742
- log intensity, polycythemia rubra vera 1; cell surface receptor (PRV1): 0.9374
- log intensity, porcupine (MG61): 3.681
- log intensity, protease, serine, 4 (trypsin 4, brain): 3.359
- log intensity, protein S (alpha) (PROS1): 1.7883
- log intensity, protocadherin 10: 2.986
- log intensity, putative 47 kDa protein (r448): 1.052
- log intensity, putative 47 kDa protein (r770): 0.8617
- log intensity, putative sterol reductase SR-1 (TM7SF2): 2.478
- log intensity, ras homolog gene family, member B: 0.07189
- log intensity, receptor tyrosine kinase-like orphan receptor 2 (ROR2): 3.056
- log intensity, regulator of G protein signalling 5 (RGS5): 3.951
- log intensity, ret finger protein-like 2 (RFPL2): 0.5039
- log intensity, secreted apoptosis related protein 2 (SARP2): 5.743
- log intensity, secreted frizzled-related protein 1: 4.218
- log intensity, sialyltransferase (STHM): 1.503
- log intensity, signal transducer and activator of transcription 3 (acute-phase response factor): 0.5602
- log intensity, singed (Drosophila)-like (sea urchin fascin homolog like) (SNL): 5.254
- log intensity, sodium dependent phosphate transporter isoform NaPi-IIb: 0.232
- log intensity, solute carrier (SLC25A18): −1.1
- log intensity, solute carrier family 9 (sodiumhydrogen exchanger), isoform 5 (SLC9A5): 1.196
- log intensity, stanniocalcin 1 (STC1), mRNA: 5.28
- log intensity, stanniocalcin 1 (r1113): 5.701
- log intensity, testican 3 (HSAJ1454): 1.551
- log intensity, testis enhanced gene transcript (BAX inhibitor 1): 1.317
- log intensity, thyrotropin-releasing hormone (TRH): −0.2584
- log intensity, transcription factor 2, hepatic; LF-B3; variant hepatic nuclear factor (TCF2), transcript variant a: 2.543
- log intensity, transcriptional activator of the c-fos promoter (CROC4): 3.225
- log intensity, transmembrane tyrosine kinase mRNA: 1.932
- log intensity, tropomodulin, clone MGC: 3643: 1.464
- log intensity, tryptase, alpha: 3.764
- log intensity, tudor repeat associator with PCTAIRE 2: 3.275
- log intensity, tyrosine 3-monooxygenasetryptophan 5-monooxygenase activation protein, eta polypeptide (r705): 4.608
- log intensity, tyrosine 3-monooxygenasetryptophan 5-monooxygenase activation protein, eta polypeptide (r966): 4.926
